Data on one compound can be found in patent US6436925B1, “Substituted benzamides, their production and their use as cysteine protease inhibitors” (Abbott Laboratories, priority 1998, dated 2002).

For orientation: inhibition means the drop in the measured response relative to a control, in per cent. One may read the Ki as the equilibrium dissociation constant of an inhibitor or competing ligand from its target. Read a high Ki as lower affinity.

The target in this assay is T1, calpain I (human μ-calpain) (Homo sapiens, UniProt P07384).
T1 construct: Human μ-calpain is isolated from erythrocytes; from tissue; host or cells: human erythrocytes
T1 sequence (P07384 1-714): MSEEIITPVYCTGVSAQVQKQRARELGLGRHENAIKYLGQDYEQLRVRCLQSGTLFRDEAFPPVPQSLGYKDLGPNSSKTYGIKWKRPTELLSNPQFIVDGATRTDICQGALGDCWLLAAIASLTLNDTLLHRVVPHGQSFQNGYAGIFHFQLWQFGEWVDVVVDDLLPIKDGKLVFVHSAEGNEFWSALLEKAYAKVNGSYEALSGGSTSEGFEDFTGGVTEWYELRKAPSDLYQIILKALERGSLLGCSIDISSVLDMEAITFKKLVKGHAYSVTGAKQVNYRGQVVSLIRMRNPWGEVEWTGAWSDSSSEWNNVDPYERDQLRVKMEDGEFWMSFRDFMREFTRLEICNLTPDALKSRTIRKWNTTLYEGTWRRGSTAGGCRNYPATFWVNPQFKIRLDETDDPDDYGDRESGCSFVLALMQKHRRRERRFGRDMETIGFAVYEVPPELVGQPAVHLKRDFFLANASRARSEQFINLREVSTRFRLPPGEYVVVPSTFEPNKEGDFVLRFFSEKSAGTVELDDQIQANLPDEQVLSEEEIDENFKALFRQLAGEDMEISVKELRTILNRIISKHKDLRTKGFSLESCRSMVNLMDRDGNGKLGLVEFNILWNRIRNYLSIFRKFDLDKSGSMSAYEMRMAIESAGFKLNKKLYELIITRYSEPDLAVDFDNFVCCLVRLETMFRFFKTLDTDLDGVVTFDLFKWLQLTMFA
T1 sequence (P04632 1-268 partner): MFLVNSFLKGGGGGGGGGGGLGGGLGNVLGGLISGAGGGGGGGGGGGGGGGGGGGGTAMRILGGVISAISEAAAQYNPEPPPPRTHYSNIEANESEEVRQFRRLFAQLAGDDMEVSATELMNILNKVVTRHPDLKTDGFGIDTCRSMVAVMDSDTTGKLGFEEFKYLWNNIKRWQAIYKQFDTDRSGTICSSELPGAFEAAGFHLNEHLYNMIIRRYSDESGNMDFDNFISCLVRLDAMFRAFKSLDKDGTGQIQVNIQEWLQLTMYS
The experiment in a line: Calpain I and II assay (fluorogenic substrate Suc-Leu-Tyr-AMC). The assay is classed as biochemical. On the procedure: The inhibitory effect of the benzamides I has been determined using enzyme assays known from the literature, determining as criterion of effect a concentration of the inhibitor at which 50% of the enzyme activity is inhibited (=IC50). The amides I were measured in this way for their inhibitory effect on calpain I, calpain II and cathepsin B.
The testing of the inhibitory properties of calpain inhibitors takes place in buffer with 50 mM tris-HCl, pH 7.5; 0.1 M NaCl; 1 mM dithiotreithol [sic]; 0.11 mM CaCl2, using the fluorogenic calpain substrate Suc-Leu-Tyr-AMC (25 mM dissolved in DMSO, Bachem/switzerland). Human μ-calpain is isolated from erythrocytes, and enzyme with a purity >95%, assessed by SDS-PAGE, Western blot analysis and N-terminal sequencing, is obtained after more [sic] chromatographic steps (DEAE-Sepharose, phenyl-Sepharose, Superdex 200 and blue Sepharose). The fluorescence of the cleavage product 7-amino-4-methylcoumarin (AMC) is followed in a Spex Fluorolog fluorimeter at λex=380 nm and λem =460 nm. […]
In a test mixture, 10 μl of substrate (250 μM final) and then 10 μl of μ-calpain (2 μg/ml final, i.e. 18 nM) are added to a 1 ml cuvette containing buffer. The calpain-mediated cleavage of the substrate is measured for from 15 to 20 min. […] Ki values are determined using the classical equation for reversible inhibition: […]

For the compound `O=C(N[C@@H](Cc1ccccc1)C(=O)CNS(=O)(=O)c1ccccc1)c1cccc(NS(=O)(=O)c2ccc3ccccc3c2)c1` [Example 1, 3(2-Naphthylsulfonamido)-N(3(S)-4-phenyl-1-phenylsulfonamidobutan-2-on-3-yl)benzamide], the inhibition at 1 µM (at a concentration of 1 μM) is above 50%. Where the note is “calpain I, inferred from more than 50% inhibition at 1 μM”, this compound came in with a Ki below 1 µM.
